The source of these data is PMC6303142 (Saudi Journal of Biological Sciences, 2016).

In one series the test system is S. aureus F7 strain. Briefly: Electron microscopy. The class given is cell-based, Staphylococcus aureus. The settings on record: DHC at MIC, 24 h, SEM and TEM.
A further series addresses T1, COX-2 (Homo sapiens, UniProt P35354).
T1 sequence (P35354 18-604): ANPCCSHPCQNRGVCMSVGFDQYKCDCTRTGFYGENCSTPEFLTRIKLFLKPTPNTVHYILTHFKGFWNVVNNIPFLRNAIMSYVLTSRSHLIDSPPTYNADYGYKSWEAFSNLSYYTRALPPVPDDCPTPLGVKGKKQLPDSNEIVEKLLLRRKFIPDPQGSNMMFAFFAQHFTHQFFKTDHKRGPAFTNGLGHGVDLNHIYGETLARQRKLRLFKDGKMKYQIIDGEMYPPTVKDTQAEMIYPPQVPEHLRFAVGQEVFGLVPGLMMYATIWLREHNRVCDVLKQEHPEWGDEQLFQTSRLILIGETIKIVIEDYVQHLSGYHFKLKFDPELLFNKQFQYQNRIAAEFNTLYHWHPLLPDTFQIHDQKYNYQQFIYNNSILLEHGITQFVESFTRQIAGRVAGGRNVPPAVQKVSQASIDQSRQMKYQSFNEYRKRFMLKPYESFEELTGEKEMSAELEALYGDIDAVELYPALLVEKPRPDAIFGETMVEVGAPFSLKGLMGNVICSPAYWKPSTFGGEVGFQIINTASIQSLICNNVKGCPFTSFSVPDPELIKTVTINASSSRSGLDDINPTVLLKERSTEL
Briefly: Cyclooxygenase. The class given is biochemical.

Another series deals with T2, soybean LOX-1 (Glycine max, UniProt P08170).
T2 sequence (P08170 1-839): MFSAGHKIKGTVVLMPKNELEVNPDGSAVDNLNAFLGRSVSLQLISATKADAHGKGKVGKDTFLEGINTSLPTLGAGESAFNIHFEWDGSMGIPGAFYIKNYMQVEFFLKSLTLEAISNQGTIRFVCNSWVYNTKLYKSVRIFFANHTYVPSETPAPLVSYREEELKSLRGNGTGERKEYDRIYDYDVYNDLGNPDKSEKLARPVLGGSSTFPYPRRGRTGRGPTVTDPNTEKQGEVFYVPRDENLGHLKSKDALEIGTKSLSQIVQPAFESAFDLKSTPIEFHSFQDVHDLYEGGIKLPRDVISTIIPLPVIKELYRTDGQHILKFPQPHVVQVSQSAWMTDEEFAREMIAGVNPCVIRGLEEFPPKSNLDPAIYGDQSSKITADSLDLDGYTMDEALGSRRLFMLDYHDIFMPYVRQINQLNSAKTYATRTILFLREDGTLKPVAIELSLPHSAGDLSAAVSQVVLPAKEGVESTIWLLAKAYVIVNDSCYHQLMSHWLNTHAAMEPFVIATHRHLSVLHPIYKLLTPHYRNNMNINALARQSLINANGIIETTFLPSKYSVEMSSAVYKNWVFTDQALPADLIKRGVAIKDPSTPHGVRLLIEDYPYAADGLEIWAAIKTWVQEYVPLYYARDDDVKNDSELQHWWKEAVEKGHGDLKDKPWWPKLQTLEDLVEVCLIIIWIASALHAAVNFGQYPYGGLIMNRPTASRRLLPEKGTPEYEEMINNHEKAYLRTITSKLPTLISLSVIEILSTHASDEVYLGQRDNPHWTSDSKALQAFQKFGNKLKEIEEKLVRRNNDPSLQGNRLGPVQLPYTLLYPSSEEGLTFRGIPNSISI
Briefly: Lipoxygenase. The class given is biochemical.

Another series deals with sPLA2. In kind it is biochemical.
Series [1] deals with human hepatoma HepG2 cells. The settings on record: ref Zampini et al. (2008); cited from earlier work.
In a further series the test system is Staphylococcus aureus. Kind of series: Broth microdilution MIC/MBC against planktonic cells. The class given is cell-based.
The test system of series [2] is S. aureus (ATCC 25923 and F7 strains) biofilm. Briefly: Biofilm formation. The following applies: 1/2 MIC, 24 h, F7 and ATCC 25923 strains, crystal violet. The class given is cell-based, Staphylococcus aureus.
The subject of a further series is Artemia salina. Kind of series: General.
Where [3] appears, read: ATCC29213, S. aureus ATCC 29213, control strain.
Where [4] appears, read: S. aureus clinical isolate 5 (F5), Met^r Oxa^r.
The mark [5] stands for this setting: S. aureus clinical isolate 7 (F7), Met^r Oxa^r Gen^r.
The mark [6] stands for this setting: S. aureus clinical isolate 8 (F8), Met^r Oxa^r.
[7] abbreviates: S. aureus clinical isolate 23 (F23), Met^r Oxa^r.
The mark [8] stands for this setting: S. aureus clinical isolate 31 (F31), Met^r Oxa^r Van^s.

The structures appear in SMILES notation. In brackets after ≈: the same amount, converted by molar mass. Where two headings read alike, the source gives them in different places.

As a reminder, the IC50 is the concentration that gives 50% inhibition. The low end stands for greater potency, the high end for weaker potency. The MBC is the lowest tested concentration that kills the bacteria rather than only halting them. A higher MBC goes with less potent killing. Usually MIC stands for the smallest concentration in the dilution series that meets the test's criterion for growth inhibition. Read a low MIC as inhibition by little substance. In the case of `O=C(/C=C/c1ccccc1)c1ccc(O)cc1O` [DHC, 2′,4′-dihydroxychalcone], the “morphological changes in the cell appearance” value in the series on S. aureus F7 strain was “visible cellular aggregation, blebs on the cellular surface and cytoplasmic coagulation”. The IC50 is 7.16 µM against COX-2 and 414 µM at soybean LOX-1. The “Inhibition (%) sPLA2” value in the series on sPLA2 (10 μg/mL) worked out at 60.50 ± 2.90%. The genotoxicity result in series [1] is on record as “did not find genotoxicity”. In addition, the MBC against Staphylococcus aureus (setting [3]) was found to be 50 µg/mL (≈ 208 µM); against Staphylococcus aureus (setting [4]), 100 µg/mL (≈ 416 µM); against Staphylococcus aureus (setting [5]), 100 µg/mL (≈ 416 µM); with Staphylococcus aureus (setting [6]), 100 µg/mL (≈ 416 µM); against Staphylococcus aureus (setting [7]), 200 µg/mL (≈ 832 µM); in the series with Staphylococcus aureus (setting [8]), 200 µg/mL (≈ 832 µM). Further, the MIC was found to be 50 µg/mL (≈ 208 µM) against Staphylococcus aureus (setting [3]); 25 µg/mL (≈ 104 µM) against Staphylococcus aureus (setting [4]); 25 µg/mL (≈ 104 µM) against Staphylococcus aureus (setting [5]); 25 µg/mL (≈ 104 µM) in the series on Staphylococcus aureus (setting [6]); 25 µg/mL (≈ 104 µM) against Staphylococcus aureus (setting [7]); 100 µg/mL (≈ 416 µM) against Staphylococcus aureus (setting [8]). For the same compound, the biofilm formation inhibition result in series [2] was “most active pure compound”.

Consider `O=c1c(O)c(-c2ccccc2)oc2cc(O)ccc12` [DHF, 3,7-dihydroxyflavone], for which the IC50 was 100 µM at COX-2 and 227 µM against soybean LOX-1. The “Inhibition (%) sPLA2” value in the series with sPLA2 (10 μg/mL) was determined as 2.70 ± 0.20%. Further, in the series on sPLA2 (at the concentration assayed (10 μg/mL)), the “activity on sPLA2” value is “not active”. Besides, the MBC is above 500 µg/mL in the series on Staphylococcus aureus (setting [3]); above 500 µg/mL against Staphylococcus aureus (setting [4]); above 500 µg/mL against Staphylococcus aureus (setting [5]); 400 µg/mL (≈ 1570 µM) against Staphylococcus aureus (setting [6]); above 500 µg/mL in the series on Staphylococcus aureus (setting [7]); above 500 µg/mL against Staphylococcus aureus (setting [8]). For the same compound, the MIC in the series with Staphylococcus aureus (setting [3]) is 400 µg/mL (≈ 1570 µM); against Staphylococcus aureus (setting [4]) it was 200 µg/mL (≈ 787 µM); in the series on Staphylococcus aureus (setting [5]) it was 200 µg/mL (≈ 787 µM); in the series on Staphylococcus aureus (setting [6]), 25 µg/mL (≈ 98.3 µM); with Staphylococcus aureus (setting [7]), 200 µg/mL (≈ 787 µM); against Staphylococcus aureus (setting [8]) it was 200 µg/mL (≈ 787 µM).

Consider `COc1c(O)ccc(C(=O)/C=C/c2ccccc2)c1O` [DHMC, 2′,4′-dihydroxy-3′-methoxychalcone], for which the “activity against COX-2” value at COX-2 (tested concentrations 10–150 μg/mL) was “not active”. Besides, it took 235 µM to reach half-maximal inhibition against soybean LOX-1 (IC50). Besides, in the series with sPLA2 (10 μg/mL), the “Inhibition (%) sPLA2” value is 38.18 ± 1.80%. Moreover, the MBC against Staphylococcus aureus (setting [3]), in the series with Staphylococcus aureus (setting [4]), against Staphylococcus aureus (setting [5]), against Staphylococcus aureus (setting [6]), in the series with Staphylococcus aureus (setting [7]) and against Staphylococcus aureus (setting [8]) was 200 µg/mL (≈ 740 µM) throughout. Also, the MIC with Staphylococcus aureus (setting [3]) amounted to 200 µg/mL (≈ 740 µM); in the series on Staphylococcus aureus (setting [4]), 200 µg/mL (≈ 740 µM); in the series with Staphylococcus aureus (setting [5]) it was 200 µg/mL (≈ 740 µM); with Staphylococcus aureus (setting [6]), 200 µg/mL (≈ 740 µM); with Staphylococcus aureus (setting [7]), 100 µg/mL (≈ 370 µM); in the series with Staphylococcus aureus (setting [8]), 200 µg/mL (≈ 740 µM).

On to `O=C1CC(c2ccccc2)Oc2cc(O)ccc21` (stereo not drawn) [HF, 7-hydroxyflavanone], for which the MBC was above 500 µg/mL against Staphylococcus aureus (setting [3]); above 500 µg/mL in the series with Staphylococcus aureus (setting [4]); 200 µg/mL (≈ 832 µM) against Staphylococcus aureus (setting [5]); above 500 µg/mL with Staphylococcus aureus (setting [6]); above 500 µg/mL in the series with Staphylococcus aureus (setting [7]); above 500 µg/mL in the series on Staphylococcus aureus (setting [8]).

With `COc1ccc2cc([C@H](C)C(=O)O)ccc2c1` [Naproxen, reference compound], the “Inhibition (%) sPLA2” value with sPLA2 was found to be 6.00 ± 0.40%.

For the compound `[Na+].[Na+].[O]=[Cr](=[O])([O-])[O][Cr](=[O])(=[O])[O-]` [sodium dichromate], the “LC50 (concentration that kills 50% of the A. salina larvae)” value in the series with Artemia salina was found to be 30 µg/mL.
